For 25 compounds, IC50 results are on record in patent US20200069691A1, “HETEROCYCLIC COMPOUNDS AS HIV PROTEASE INHIBITORS” (Merck Sharp & Dohme Corp., priority 2016, published 2020).

This test has as its target T1, wild-type HIV-1 protease (Human immunodeficiency virus type 1 group M subtype B, UniProt P04585).
T1 construct: Escherichia coli expressed wild-type HIV-1 protease protein
As to the kind of experiment: Assay for Inhibition of Microbial Expressed HIV Protease (peptide substrate cleavage, LC-MS/MS readout). It is filed as biochemical. Particulars: E. coli expressed wild-type HIV-1 protease, mean of at least two independent experiments, read-out: HIV Pr Enzyme HIV1 PR IC50. In a few lines:
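E. coli-expressed wild-type HIV-1 protease ([…]) was preincubated with inhibitor 30 min at room temperature in pH 5.5 acetate buffer (100 mM NaCl, 0.1% BSA). Then 400 μM octapeptide substrate was added and reacted 1 h at 30 °C; inhibition came from LC-MS/MS product peak areas, mean of ≥2 experiments.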
In the case of `CS(=O)(=O)N1CCN(C(=O)c2cc(CN3C(=N)N[C@](CCCC(F)(F)F)(c4ccc(F)cc4)C3=O)ccc2C(F)(F)F)CC1` [Compound 92, (5R)-5-(4-fluorophenyl)-2-imino-3-[3-{[4-(methylsulfonyl)piperazin-1-yl]carbonyl}-4-(trifluoromethyl)-benzyl]-5-(4,4,4-trifluorobutyl)-imidazolidin-4-one], the concentration for half-maximal inhibition (IC50) was determined as 17.3 nM. The value for `CC(C)C[C@]1(c2ccccc2)NC(=N)N([C@H](C)c2ccc(C(F)(F)F)c(C(=O)N3Cc4nccnc4C3)c2)C1=O` [Compound 147, (5R)-3-{(1R)-1-[3-(5,7-dihydro-6H-pyrrolo[3,4-b]pyrazin-6-ylcarbonyl)-4-(trifluoromethyl)phenyl]ethyl}-2-imino-5-(2-methylpropyl)-5-phenylimidazolidin-4-one] was 4.75 nM; that for `C[C@H](c1cccc(C(=O)N2Cc3cncnc3C2)c1)N1C(=N)NC(c2ccc(F)cc2)(c2ccc(F)cc2)C1=O` [Compound 198, 3-{(1R)-1-[3-(5,7-dihydro-6H-pyrrolo[3,4-d]pyrimidin-6-ylcarbonyl)phenyl]ethyl}-5,5-bis(4-fluorophenyl)-2-iminoimidazolidin-4-one] was 5.36 nM. `CCOC(=O)NC1CCN(C(=O)c2cccc(CN3C(=N)NC(c4ccccc4)(c4ccccc4)C3=O)c2)CC1` [Compound 355, ethyl [1-({3-[(2-imino-5-oxo-4,4-diphenylimidazolidin-1-yl)methyl]phenyl}carbonyl)piperidin-4-yl]carbamate]: the half-maximal inhibitory concentration (IC50) amounted to 89.8 nM.

On to `N=C1NC(c2ccccc2)(c2ccccc2)C(=O)N1Cc1cc(C(=O)N2Cc3cncnc3C2)cs1` [Compound 408, 3-{[4-(5,7-dihydro-6H-pyrrolo[3,4-d]pyrimidin-6-ylcarbonyl)thiophen-2-yl]methyl}-2-imino-5,5-diphenylimidazolidin-4-one], for which the IC50 turned out to be 80.5 nM.

Regarding `N=C1NC(CCC2CC2)(c2cccc(C(F)(F)F)c2)C(=O)N1Cc1ccc(C(F)(F)F)c(C(=O)N2Cc3nccnc3C2)c1` (stereo not shown) [Compound 114, 5-(2-cyclopropylethyl)-3-[3-(5,7-dihydro-6H-pyrrolo[3,4-b]pyrazin-6-ylcarbonyl)-4-(trifluoromethyl)-benzyl]-2-imino-5-[3-(trifluoromethyl)-phenyl]-imidazolidin-4-one], the IC50 worked out at 34.5 nM.

In the case of `CN(C)S(=O)(=O)c1cccc(-c2ncc3c(n2)CN(C(=O)c2cc(CN4C(=N)N[C@](CCCC(F)(F)F)(c5ccc(F)cc5)C4=O)ccc2C(F)(F)F)C3)c1` [Compound 66, 3-(6-{[5-{[(4R)-4-(4-fluorophenyl)-2-imino-5-oxo-4-(4,4,4-trifluorobutyl)imidazolidin-1-yl]methyl}-2-(trifluoromethyl)-phenyl]carbonyl}-6,7-dihydro-5H-pyrrolo[3,4-d]pyrimidin-2-yl)-N,N-dimethylbenzene-sulfonamide], the half-inhibitory concentration (IC50) was found to be 7.73 nM. The value for `CC1c2ccccc2CN1C(=O)c1cccc(CN2C(=N)NC(c3ccc(F)cc3)(c3ccc(F)cc3)C2=O)c1` (stereo not shown) [Compound 311, 5,5-bis(4-fluorophenyl)-2-imino-3-{3-[(1-methyl-1,3-dihydro-2H-isoindol-2-yl)carbonyl]benzyl} imidazolidin-4-one] was 51.8 nM.

With `N=C1N[C@](CCCC(F)(F)F)(c2ccc(F)cc2)C(=O)N1Cc1ccc(C(F)(F)F)c(C(=O)N2Cc3cnc(NCC4CC4)nc3C2)c1` [Compound 74, (5R)-3-[3-({2-[(cyclopropylmethyl)amino]-5,7-dihydro-6H-pyrrolo[3,4-d]pyrimidin-6-yl}carbonyl)-4-(trifluoromethyl)benzyl]-5-(4-fluorophenyl)-2-imino-5-(4,4,4-trifluorobutyl)imidazolidin-4-one], the IC50 amounted to 9.6 nM. Take `N#CCc1ccc(-c2ncc3c(n2)CN(C(=O)c2cc(CN4C(=N)N[C@](CCCC(F)(F)F)(c5ccc(F)cc5)C4=O)ccc2C(F)(F)F)C3)cn1` [Compound 61, [5-(6-{[5-{[(4R)-4-(4-fluorophenyl)-2-imino-5-oxo-4-(4,4,4-trifluorobutyl)imidazolidin-1-yl]methyl}-2-(trifluoromethyl)-phenyl]carbonyl}-6,7-dihydro-5H-pyrrolo[3,4-d]pyrimidin-2-yl)pyridin-2-yl]acetonitrile]: the 50% inhibitory concentration (IC50) was found to be 6.6 nM. For the compound `CCCC1(c2ccccc2)NC(=N)N(Cc2cccc(C(=O)N3Cc4ccccc4C3)c2)C1=O` (stereo not shown) [Compound 236, 3-[3-(1,3-dihydro-2H-isoindol-2-ylcarbonyl)benzyl]-2-imino-5-phenyl-5-propylimidazolidin-4-one], the IC50 is 14.4 nM.

Turning to `N=C1NC(c2ccc(F)cc2)(c2ccc(F)cc2)C(=O)N1Cc1cccc(C(=O)N2Cc3ccc(C(F)(F)F)cc3C2)c1` [Compound 317, 5,5-bis(4-fluorophenyl)-2-imino-3-(3-{[5-(trifluoromethyl)-1,3-dihydro-2H-isoindol-2-yl]carbonyl}benzyl)-imidazolidin-4-one], the concentration for half-maximal inhibition (IC50) was 54.9 nM. The same measure for `CC(=O)N1CCN(C(=O)c2cccc(CN3C(=N)NC(c4ccccc4)(c4ccccc4)C3=O)c2)CC1` [Compound 352, 3-{3-[(4-acetylpiperazin-1-yl)carbonyl]benzyl}-2-imino-5,5-diphenylimidazolidin-4-one]: 86.9 nM; for `CC(C)CCC1(c2ccccc2)NC(=N)N(Cc2cc(C(=O)N3Cc4nccnc4C3)ccn2)C1=O` (stereo not shown) [Compound 400, 3-{[4-(5,7-dihydro-6H-pyrrolo[3,4-b]pyrazin-6-ylcarbonyl)pyridin-2-yl]methyl}-2-imino-5-(3-methylbutyl)-5-phenylimidazolidin-4-one]: 25.6 nM. `CC(C)CC1(c2ccccc2)NC(=N)N(Cc2cc(C(=O)N3Cc4nccnc4C3)ccn2)C1=O` (stereo not shown) [Compound 403, 3-{[4-(5,7-dihydro-6H-pyrrolo[3,4-b]pyrazin-6-ylcarbonyl)pyridin-2-yl]methyl}-2-imino-5-(2-methylpropyl)-5-phenylimidazolidin-4-one]: the IC50 is 54.3 nM.

`N=C1NC(c2ccc(F)cc2)(c2ccc(F)cc2)C(=O)N1Cc1ccc(C(F)(F)F)c(C(=O)N2Cc3cncnc3C2)c1` [Compound 138, 3-[3-(5,7-dihydro-6H-pyrrolo[3,4-d]pyrimidin-6-ylcarbonyl)-4-(trifluoromethyl)benzyl]-5,5-bis(4-fluorophenyl)-2-iminoimidazolidin-4-one]: the half-maximal inhibitory concentration (IC50) was found to be 2.78 nM. Consider `COc1ccc(CN2C(=N)NC(c3ccccc3)(c3ccccc3)C2=O)cc1C(=O)N1Cc2cccc(F)c2C1` [Compound 372, 3-{3-[(4-fluoro-1,3-dihydro-2H-isoindol-2-yl)carbonyl]-4-methoxybenzyl}-2-imino-5,5-diphenylimidazolidin-4-one], for which the concentration for half-maximal inhibition (IC50) came out at 6.91 nM. Take `COC(=O)Nc1ncc2c(n1)CN(C(=O)c1ccc3c(c1)[C@H](N1C(=N)N[C@](CCC(C)C)(c4ccccc4)C1=O)CCC3)C2` [Compound 81, methyl [6-({(8R)-8-[(4R)-2-imino-4-(3-methylbutyl)-5-oxo-4-phenylimidazolidin-1-yl]-5,6,7,8-tetrahydronaphthalen-2-yl}carbonyl)-6,7-dihydro-5H-pyrrolo[3,4-d]pyrimidin-2-yl]carbamate]: the IC50 came out at 12 nM. The same measure for `N=C1N[C@](CCCC(F)(F)F)(c2ccc(F)cc2)C(=O)N1Cc1ccc(C(F)(F)F)c(C(=O)N2Cc3cnc(Cl)nc3C2)c1` [Compound 35, (5R)-3-{3-[(2-chloro-5,7-dihydro-6H-pyrrolo[3,4-d]pyrimidin-6-yl)carbonyl]-4-(trifluoromethyl)-benzyl}-5-(4-fluorophenyl)-2-imino-5-(4,4,4-trifluorobutyl)-imidazolidin-4-one]: 3.42 nM; for `CC(C)CC[C@]1(c2ccccc2)NC(=N)N([C@@H]2CCS(=O)(=O)c3ccc(C(=O)N4Cc5nccnc5C4)cc32)C1=O` [Compound 111, (5R)-3-[(4R)-6-(5,7-dihydro-6H-pyrrolo[3,4-b]pyrazin-6-ylcarbonyl)-1,1-dioxido-3,4-dihydro-2H-thiochromen-4-yl]-2-imino-5-(3-methylbutyl)-5-phenylimidazolidin-4-one]: 28.3 nM; for `N=C1N[C@](CCC2CC2)(c2cccc(F)c2)C(=O)N1Cc1ccc(C(F)(F)F)c(C(=O)N2CCn3c(nnc3C(F)(F)F)C2)c1` [Compound 103, (5R)-5-(2-cyclopropylethyl)-5-(3-fluorophenyl)-2-imino-3-[4-(trifluoromethyl)-3-{[3-(trifluoro-methyl)-5,6-dihydro[1,2,4]triazolo-[4,3-a]pyrazin-7(8H)-yl]carbonyl}-benzyl]imidazolidin-4-one]: 23.8 nM. `N#Cc1cccc(-c2ncc3c(n2)CN(C(=O)c2cc(CN4C(=N)N[C@](CCCC(F)(F)F)(c5ccc(F)cc5)C4=O)ccc2C(F)(F)F)C3)c1` [Compound 79, 3-(6-{[5-{[(4R)-4-(4-fluorophenyl)-2-imino-5-oxo-4-(4,4,4-trifluoro-butyl)imidazolidin-1-yl]methyl}-2-(trifluoromethyl)-phenyl]carbonyl}-6,7-dihydro-5H-pyrrolo[3,4-d]pyrimidin-2-yl)benzonitrile]: the half-inhibitory concentration (IC50) amounted to 10.8 nM. The value for `C[C@H](c1cccc(C(=O)N2Cc3ccccc3C2)c1)N1C(=N)NC(c2ccc(F)cc2)(c2ccc(F)cc2)C1=O` [Compound 231, 3-{(1R)-1-[3-(1,3-dihydro-2H-isoindol-2-ylcarbonyl)phenyl]ethyl}-5,5-bis(4-fluorophenyl)-2-iminoimidazolidin-4-one] was 13.3 nM. On to `N=C1NC(c2ccccc2)(c2ccccc2)C(=O)N1Cc1cccc(C(=O)N2CCn3ccnc3C2)c1` [Compound 339, 3-[3-(5,6-dihydroimidazo[1,2-a]pyrazin-7(8H)-ylcarbonyl)benzyl]-2-imino-5,5-diphenylimidazolidin-4-one], for which the IC50 is 75.8 nM. For the compound `N=C1NC(c2ccc(F)cc2)(c2ccc(F)cc2)C(=O)N1Cc1ccc(Cl)c(C(=O)N2CCC(F)(F)C2)c1` [Compound 389, 3-{4-chloro-3-[(3,3-difluoropyrrolidin-1-yl)carbonyl]benzyl}-5,5-bis(4-fluorophenyl)-2-iminoimidazolidin-4-one], the half-maximal inhibitory concentration (IC50) worked out at 98.5 nM.

By IC50 is commonly meant the point on the concentration scale where inhibition reaches its midpoint.
